These results are taken from patent publication US20180289709A1, “METHODS OF TREATING INFLAMMATION” (priority 2010, published 2018).

Entries after “also recorded” stand apart in the source; their conditions may differ. Where two headings read alike, the source gives them in different places.

In data set [1] the test system is BMDCs. The data set can be described thus: qPCR of antiviral and inflammatory gene mRNAs in TLR-stimulated BMDCs. The note with it: for transcription of mRNAs for antiviral cytokines (Ifnb1, Cxcl10): inhibitor 1 hour prior to stimulation.
The subject of data set [2] is conventional DCs (GM-CSF-induced BMDCs). In kind it is cell-based, mouse.
Data set [3] has as its system BMDCs. In words: Cell cycle analysis (propidium iodide DNA content, flow cytometry). The note with it: propidium iodide DNA content after 0, 6, 12 h treatment. In kind it is cell-based, mouse. The method, then:
Cells were fixed in ethanol, washed, and stained for 30 min at room temperature (RT) with propidium iodide (100 μg/mL) prepared in PBS (calcium- and magnesium-free) supplemented with RNAse A (2 mg/mL; Novagen) and triton X-100 (0.1%). Samples were analyzed for DNA content using an Accuri C6 flow cytometer (Accuri) and data was processed using the FlowJo software (Treestar).

For data set [4] the following is noted: mouse, in vivo; cited from earlier work.
The test system of data set [5] is primary mouse lung fibroblasts (MLFs). The note with it: 1 μM.
Data set [6] has as its system NF-κB p65. The data set can be described thus: NF-κB p65 nuclear translocation by confocal microscopy, BMDCs on silicon nanowires. It counts as cell-based, mouse. The note with it: nanowire-mediated delivery; LPS 30 min. The method, then: (§1) BMDCs were plated on top of etched silicon nanowires (Si NWs) coated with small molecules (Shalek et al., 2010). After 24 hours, cells were stimulated with LPS or poly(I:C), and then fixed in 4% formaldehyde in PBS (RT, 10 min). After fixation, each sample was permeabilized with 0.25% Triton-X 100 in PBS (RT, 10 min), incubated with Image-iT FX Signal Enhancer (RT, 30 min), and then blocked with 10% goat serum and 0.25% Triton-X 100 in PBS (RT, 1 hour). After washing, the samples were placed in 3% IgG-Free BSA & 0.25% Triton-X 100 in PBS that contained primary antibodies against either IRF3 or NF-κB P65 (1:175 dilution) and then rocked overnight at 4° C. The following day, the samples were washed with PBS and then incubated with an Alexa Fluor labeled secondary antibody (1:250 dilution) in 3% IgG-Free BSA & 0.25% Triton-X 100 in PBS (RT, 60 min). After washing with PBS, the samples were counterstained with 300 ng/mL of DAPI in PBS (RT, 30 min). For each experiment, every stimulus-molecule combination was prepared in triplicate. Once fixed, samples were imaged using an upright confocal microscope (Olympus). For each captured image, the nuclear fraction of the fluorescent protein was calculated after identifying nuclear boundaries using DAPI. Finally, distributions for this quantity across different conditions were compared using a one-way ANOVA analysis.

Data set [7] relates to VSV. In kind it is in vivo, mouse. The following applies: mice, VSV intra-footpad, 6 hours post-infection.
Data set [8] deals with BMDCs. The data set can be described thus: BMDC viability (Alamar blue). In kind it is cell-based, mouse. The note with it: treatment pre-stimulation.
Data set [9] deals with BMDCs. The data set can be described thus: IFN-β ELISA of BMDC culture supernatants. The following applies: BMDC supernatant, LPS 6 h; 1 μM. In kind it is cell-based, mouse. The method, then: Cell culture supernatants were assayed using a sandwich ELISA kit for mouse IFN-β (PBL Biomedical Laboratories).
The conditions of data set [10]: humans (Mross et al., 2008); cited from earlier work.
In data set [11] the test system is BMDCs. In words: SILAC-based phosphoproteomics of LPS-stimulated BMDCs pre-treated with BI 2536 versus DMSO.
For data set [12], the system named is BMDCs. The data set can be described thus: Genome-wide mRNA profiles (microarray) of BMDCs treated with BI 2536 or DMSO before LPS or poly(I:C). The following applies: for antiviral genes among genes repressed by BI 2536 compared to DMSO: at least 3-fold change. In kind it is cell-based, mouse.
The subject of data set [13] is pDCs (Flt3L-induced BMDCs). In words: qPCR and nCounter mRNA measurement in plasmacytoid DCs stimulated with CpG-A, CpG-B or EMCV. The note with it: 1 μM.
The subject of data set [14] is IRF3. In words: IRF3 nuclear translocation by confocal microscopy, BMDCs on silicon nanowires. In kind it is cell-based, mouse. The method, then:
as §1

The mark [15] stands for this setting: BMDCs, LPS, increasing amounts of BI 2536, dose-dependent.
Where [16] appears, read: DCs stimulated with LPS, poly(I:C) or Pam3CSK4, 1 μM.

For the molecule `COc1cc2ncn(-c3cc(OCc4ccccc4C(F)(F)F)c(C(N)=O)s3)c2cc1OC` [5-(5,6-Dimethoxy-1H-benzimidazol-1-yl)-3-[[2-(trifluoromethyl)phenyl]methoxy]-2-thiophenecarboxamide], the “transcription of mRNAs for antiviral cytokines (Ifnb1, Cxcl10)” value in [1] (BMDCs, LPS) is reported as “abrogate”.

Regarding `COc1ccc(Br)cc1/C=c1\sc2nc(=O)c(C)nn2c1=O` [Poloxipan], the “transcription of mRNAs for antiviral cytokines (Ifnb1, Cxcl10)” value in data set [1] (BMDCs, LPS) is “abrogate”.

Turning to `CC[C@@H]1C(=O)N(C)c2cnc(Nc3ccc(C(=O)NC4CCN(C)CC4)cc3OC)nc2N1C1CCCC1` [BI 2536], the “mRNA level of Cxcl1” value in data set [2] was “neither affected”. Further, the “transcription of antiviral genes (Ifnb1 and Cxcl10)” value in data set [2] (1 μM) is “inhibited”. For the same molecule, the “cell cycle state of BMDCs” value in [3] was “neither impacted”. The “Cxcl1 expression (qPCR)” value in data set [1] (BMDCs, LPS, increasing amounts of BI 2536) is listed as “not significantly affected”. Further, in data set [1] (setting [15]), the “Cxcl10 mRNA level (qPCR)” value is on record as “reduced” and the “Ifnb1 mRNA level (qPCR)” value is reported as “reduced”. For the same molecule, in [1] (setting [16]), the “expression of 12 well-studied antiviral genes (qPCR)” value is reported as “strongly inhibited” and the “inflammatory gene expression (qPCR)” value is “remained largely unaffected”. Besides, the tolerability result in [4] is given as “good tolerability”. In data set [5], the “drug-induced toxicity (cell viability, CellTiter-Glo)” value is “not due to drug-induced toxicity” and the “interferon production (Ifnb1 mRNA)” value was “failed to produce interferon”. In addition, the “NF-κB p65 localization” value in [6] is on record as “did not affect”. In addition, in data set [7], the “Ifna2 mRNA (type I IFN α2) in popliteal lymph nodes” value is “inhibits” and the “VSV replication in the lymph node (VSV RNA levels)” value is on record as “rapidly increased”. The “antiviral cytokine mRNA (Ifnb1, Cxcl10) in popliteal lymph nodes” value in data set [7] (500 μg i.v. and 50 μg footpad) is “strongly suppressed; also recorded: inhibits”. For the same molecule, the “viability of BMDCs” value in [8] is given as “neither impacted”. Moreover, in data set [9], the “secreted IFN-β (ELISA)” value was “reduced; also recorded: strongly inhibits”. Also, the tolerability result in [10] is “good tolerability”. In data set [11] (LPS), the “phosphorylation levels of Jun family cell cycle regulators (Jund)” value is “decreased”; the “phosphorylation levels of mitotic kinases Nek6 and Nek7” value is “decreased”; the “phosphorylation levels of proteins in the TBK1/IKK-ε/IRF3 axis” value is listed as “unchanged”. Besides, in data set [11] (LPS 30 or 120 min, 1 μM), the “distinct proteins from which the changed phosphopeptides derive” value was 413 proteins and the “phosphopeptides with significant (P<0.001) change in level” value stood at 510 phosphopeptides. Moreover, in data set [12] (LPS), the “antiviral genes among genes repressed by BI 2536 compared to DMSO” value is 67/194. In data set [12] (downregulated 3-fold upon LPS or poly(I:C) stimulation), the “unique LPS- and/or poly(I:C)-induced genes repressed” value turned out to be 311 genes. For the same molecule, the “antiviral genes among genes repressed by BI 2536 compared to DMSO” value in data set [12] (poly(I:C), P<1×10^−71, hypergeometric test) is 99/193. Further, in data set [13] (6 h), the “CpG-B-specific signature genes (nCounter)” value was “a minor effect, if any”; the “signature genes induced by CpG-A alone or by both CpG-A and -B (nCounter)” value is “repressed”. Further, in [13] (CpG-A stimulation or EMCV infection (MOI 10)), the “transcription of mRNAs for Ifnb1, Ifna2 and Cxcl10” value was “nearly abrogated”. Also, in data set [13] (CpG-B), the “Cxcl1 mRNA” value is given as “moderately increasing” and the “Cxcl10 mRNA” value is given as “decreased”. In addition, the IRF3 nuclear translocation result in data set [14] (nanowire-mediated delivery, poly(I:C) 2 h or LPS 45 min, dose-dependent) was “inhibited”. The “IRF3 translocation, delivery in solution” value in data set [14] (poly(I:C) 2 h, lesser extent than nanowire-mediated delivery) was “decreased”.
